Source: ChEMBL document CHEMBL1221175, “Purmorphamine activates the Hedgehog pathway by targeting Smoothened” (Nat Chem Biol, 2006)
Values belong to the molecule of their own block, whether it stands above or below them. Calls of active or inactive are those of the source. The rule behind the calls is not given here.

Key:
[1] = molecular target: Sonic hedgehog protein (Mus musculus) (UniProt Q62226); assay: Activation of Shh in mouse Shh Light2 cells assessed as […] at 10 uM after 30 hrs by luciferase reporter gene assay in presence of 1000 to 10000 nM 3-keto-N-aminoethyl-N'-aminocaproyldihydrocinnamoyl cyclopamine; assay type: functional, cell-based; details: Shh Light II
[2] = molecular target: Sonic hedgehog protein (Mus musculus) (UniProt Q62226); assay: Activation of Shh in mouse Shh Light2 cells assessed as […] at 1 uM after 30 hrs by luciferase reporter gene assay in presence of 1000 to 10000 nM 3-keto-N-aminoethyl-N'-aminocaproyldihydrocinnamoyl cyclopamine; assay type: functional, cell-based; details: Shh Light II
[3] = molecular target: Sonic hedgehog protein (Mus musculus) (UniProt Q62226); assay: Activation of Shh in ptch1 gene-deficient MEF assessed as beta-galactosidase activity after 30 hrs by chemiluminescence assay in presence of 100 nM 3-keto-N-aminoethyl-N'-aminocaproyldihydrocinnamoyl cyclopamine
Protein smoothened [4] = molecular target: T1, Protein smoothened (Homo sapiens, UniProt Q99835); assay: Inhibition of BODIPY-cyclopamine binding to Smo expressed in HEK293T cells after 1 hr by fluorescence microscopy
[5] = molecular target: Sonic hedgehog protein (Mus musculus) (UniProt Q62226); assay: Activation of Shh in mouse Shh Light2 cells assessed as […] after 30 hrs by luciferase reporter gene assay in presence of 100 nM 3-keto-N-aminoethyl-N'-aminocaproyldihydrocinnamoyl cyclopamine; assay type: functional, cell-based; details: Shh Light II
[6] = molecular target: Sonic hedgehog protein (Mus musculus) (UniProt Q62226); assay: Activation of Shh in smo gene-deficient MEF at 0.5 uM after 30 hrs by luciferase reporter assay
Protein smoothened [7] = molecular target: T1, Protein smoothened; details: HEK-293T; 5 uM
Description: Inhibition of BODIPY-cyclopamine binding to Smo C-terminal cytoplasmic domain expressed in HEK293T cells at 5 uM after 4 hrs by fluorescence microscopy

[8] = molecular target: Sonic hedgehog protein (Mus musculus) (UniProt Q62226); assay: Activation of Shh in smo-expressing MEF at 0.5 uM after 30 hrs by luciferase reporter assay
Protein smoothened [9] = molecular target: T1, Protein smoothened; details: HEK-293T; 5 uM; remark: listed apart in the source
Description: Inhibition of BODIPY-cyclopamine binding to Smo N-terminal cysteine domain expressed in HEK293T cells at 5 uM after 4 hrs by fluorescence microscopy

T1 sequence (Q99835 whole entry): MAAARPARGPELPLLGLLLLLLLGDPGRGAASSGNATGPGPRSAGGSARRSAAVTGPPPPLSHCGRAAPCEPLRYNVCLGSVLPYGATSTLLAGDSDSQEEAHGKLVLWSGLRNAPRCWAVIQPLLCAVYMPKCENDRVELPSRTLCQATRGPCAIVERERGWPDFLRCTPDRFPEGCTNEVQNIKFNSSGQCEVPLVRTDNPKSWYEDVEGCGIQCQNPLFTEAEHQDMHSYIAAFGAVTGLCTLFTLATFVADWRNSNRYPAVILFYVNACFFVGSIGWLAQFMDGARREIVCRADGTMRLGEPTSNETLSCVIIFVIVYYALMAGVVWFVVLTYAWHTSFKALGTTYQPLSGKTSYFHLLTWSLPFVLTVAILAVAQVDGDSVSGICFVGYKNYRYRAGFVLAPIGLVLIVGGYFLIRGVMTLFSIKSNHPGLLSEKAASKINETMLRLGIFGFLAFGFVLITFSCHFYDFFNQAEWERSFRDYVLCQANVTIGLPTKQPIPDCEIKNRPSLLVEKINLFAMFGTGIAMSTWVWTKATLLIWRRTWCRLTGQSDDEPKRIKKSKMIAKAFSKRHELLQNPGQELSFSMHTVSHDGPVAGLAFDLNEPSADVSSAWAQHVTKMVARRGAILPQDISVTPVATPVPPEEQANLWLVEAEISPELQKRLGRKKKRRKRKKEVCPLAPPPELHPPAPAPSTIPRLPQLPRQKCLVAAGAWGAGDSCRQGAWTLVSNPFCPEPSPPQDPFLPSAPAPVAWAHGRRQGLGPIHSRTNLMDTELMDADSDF

Activity [1]: Active
Activity [2]: Active
SMILES: CC1=C2C[C@H]3[C@@H](CC=C4CC(=O)CC[C@@]43C)[C@@H]2CC[C@]12O[C@@H]1C[C@H](C)CN(CCNC(=O)CCCCCNC(=O)CCc3ccccc3)[C@H]1[C@H]2C

SMILES: CC1=C2C[C@H]3[C@@H](CC=C4C[C@@H](O)CC[C@@]43C)[C@@H]2CC[C@]12O[C@@H]1C[C@H](C)CN[C@H]1[C@H]2C
Activity [3]: Active

IC50 (Protein smoothened [4]): 1.5 µM
Activity [5]: Active
Activity [3]: Active
Activity [6]: inactive
inhibition (Protein smoothened [7]): Active
Activity [8]: Active
inhibition (Protein smoothened [9]): Active
SMILES: c1ccc2c(Oc3nc(Nc4ccc(N5CCOCC5)cc4)c4ncn(C5CCCCC5)c4n3)cccc2c1 [PURMORPHAMINE]

Activity [3]: Active
SMILES: CN[C@H]1CC[C@H](N(Cc2cccc(-c3ccncc3)c2)C(=O)c2sc3ccccc3c2Cl)CC1
